The target in experiment [1] is Human immunodeficiency virus type 1 integrase (Human immunodeficiency virus 1, UniProt Q7ZJM1). Nature of the experiment: Inhibition of HIV1 integrase 3'-strand transfer.
The test system of experiment [2] is Human immunodeficiency virus 1. Nature of the experiment: Antiviral activity against HIV1 NL4-3 infected in human Hut78 cells assessed as inhibition of viral replication in 50 % normal human serum. Type of experiment: functional, organism-based. The conditions noted are these: Human immunodeficiency virus 1, NL4-3, HuT78, Serum.
Experiment [3] deals with Human immunodeficiency virus 1. Nature of the experiment: Antiviral activity against HIV1 NL4-3 infected in human Hut78 cells assessed as inhibition of viral replication in presence of 10 % fetal bovine serum. The format is functional, organism-based. The conditions noted are these: Human immunodeficiency virus 1, NL4-3, HuT78.

The structures appear in SMILES notation. Where only a bound is given, the exact number is not on record here.

Chain of Human immunodeficiency virus type 1 integrase (Q7ZJM1 whole entry): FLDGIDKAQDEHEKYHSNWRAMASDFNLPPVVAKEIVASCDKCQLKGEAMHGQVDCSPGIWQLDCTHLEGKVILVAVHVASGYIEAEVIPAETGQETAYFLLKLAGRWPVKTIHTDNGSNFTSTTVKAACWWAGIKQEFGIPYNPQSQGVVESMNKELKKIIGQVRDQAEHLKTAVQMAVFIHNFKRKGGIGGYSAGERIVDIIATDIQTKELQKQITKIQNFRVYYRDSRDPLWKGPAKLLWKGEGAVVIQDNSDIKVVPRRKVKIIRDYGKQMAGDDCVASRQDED

As to `O=C(NCc1ccc(F)cc1)c1nc2c(N3CCCS3(=O)=O)cc(N3CCOCC3)cn2c(=O)c1O`, the midpoint of inhibition in experiment [1], the IC50, lay at 195 nM. Also, the results for the EC50 in experiment [2] and in experiment [3] were 18 nM and 10.3 nM, respectively.

Regarding `O=C(NCc1ccc(F)cc1)c1nc2ccc(N3CCOCC3)cn2c(=O)c1O`, half-maximal inhibition in experiment [1] (IC50) required 80 nM. Moreover, in experiment [3], the EC50 turned out to be 215 nM.

`O=C(NCc1ccc(F)cc1)c1nc2c(Cl)cc(N3CCOCC3)cn2c(=O)c1O` had a 50% inhibitory concentration (IC50) in experiment [1] of 135 nM. Besides, the EC50 in experiment [2] stood at 158 nM; in experiment [3], 11 nM.

On to `Cc1cc2nc(C(=O)NCc3ccc(F)cc3)c(O)c(=O)n2o1`, for which, in experiment [1], the IC50 was 5100 nM. This lies in the single-digit micromolar range.

In experiment [1], `N#Cc1c[nH]n2c(=O)c(O)c(C(=O)NCc3ccc(F)cc3)nc12` showed an IC50 of 13700 nM.

As to `CN1CCN(c2cc(N(C)S(C)(=O)=O)c3nc(C(=O)NCc4ccc(F)cc4)c(O)c(=O)n3c2)CC1`, the concentration for a half-maximal effect (EC50) worked out at 61.5 nM in experiment [2] and 19.8 nM in experiment [3].

On to `O=C(NCc1ccc(F)cc1)c1nc2sc(N3CCOCC3)cn2c(=O)c1O`, for which the IC50 in experiment [1] worked out at 1130 nM.

Compound `CC(=O)N1CCN(c2cc(Br)c3nc(C(=O)NCc4ccc(F)cc4)c(O)c(=O)n3c2)CC1` registered an IC50 in experiment [1] of 110 nM. In addition, the EC50 in experiment [2] was found to be 40 nM; in experiment [3], 8 nM.

Turning to `CCN(C(=O)C(=O)N1CCOCC1)c1cccn2c(=O)c(O)c(C(=O)NCc3ccc(F)cc3)nc12`, the EC50 in experiment [3] was determined as 31 nM.

On to `CC(C)Oc1cc(N2CCOCC2)cn2c(=O)c(O)c(C(=O)NCc3ccc(F)cc3)nc12`, for which the IC50 in experiment [1] was determined as 245 nM. Moreover, in experiment [3], the EC50 is 5 nM.

Consider `O=C(NCc1ccc(F)cc1)c1nc2c(I)cc(N3CCOCC3)cn2c(=O)c1O`, for which the midpoint of inhibition in experiment [1], the IC50, lay at 85 nM. The EC50 in experiment [2] was 50 nM; in experiment [3] it was 6 nM.

Turning to `O=C(NCc1ccc(F)cc1)c1nc2c3ccccc3[nH]n2c(=O)c1O`, in experiment [1], the IC50 is > 10000 nM.

Regarding `O=C(NCc1ccc(F)cc1)c1nc2cc(-c3ccccc3)[nH]n2c(=O)c1O`, the IC50 in experiment [1] is > 100000 nM.

In the case of `O=C(NCc1ccc(F)cc1)c1nc2sc3ccccc3n2c(=O)c1O`, in experiment [1], the IC50 was > 30000 nM.

As for `O=C(NCc1ccc(F)cc1)c1nc2ccccn2c(=O)c1O`, in experiment [1], half-maximal inhibition (IC50) was put at 587 nM.

Consider `O=C(NCc1ccc(F)cc1)c1nc2c(OCC3CC3)cc(N3CCOCC3)cn2c(=O)c1O`, for which, in experiment [1], 429 nM corresponded to half-maximal inhibition (IC50). Further, the EC50 in experiment [2] stood at 590 nM; in experiment [3], 12 nM.

Regarding `O=C(NCc1ccc(F)cc1)c1nc2[nH]c3ccccc3n2c(=O)c1O`, in experiment [1], the IC50 is > 100000 nM.

With `O=C(NCc1ccc(F)cc1)c1nc2c(N3CCCS3(=O)=O)cc(N3CCNCC3)cn2c(=O)c1O`, the concentration for a half-maximal effect (EC50) was found to be 43 nM in experiment [2] and 280 nM in experiment [3].

With `COc1cc(N2CCOCC2)cn2c(=O)c(O)c(C(=O)NCc3ccc(F)cc3)nc12`, the half-maximal inhibitory concentration (IC50) in experiment [1] turned out to be 170 nM. Further, the values for the concentration giving a half-maximal response (EC50) in experiment [2] and in experiment [3] were 1400 nM and 9.5 nM, respectively.

For the compound `Cn1ccn2c(=O)c(O)c(C(=O)NCc3ccc(F)cc3)nc12`, the 50% inhibitory concentration (IC50) in experiment [1] came to 76.8 nM.

Consider `O=C(NCc1ccc(F)cc1)c1nc2c3ccc(N4CCOCC4)cc3on2c(=O)c1O`, for which, in experiment [1], the IC50 is > 10000 nM.

For `Cn1c2ccccc2n2c(=O)c(O)c(C(=O)NCc3ccc(F)cc3)nc12`, the midpoint of inhibition in experiment [1], the IC50, lay at 20200 nM.

The compound `Cc1cn2c(=O)c(O)c(C(=O)NCc3ccc(F)cc3)nc2s1` yielded an IC50 in experiment [1] of 4250 nM.

As for `O=C(NCc1ccc(F)cc1)c1nc2c(Br)cc(N3CCOCC3)cn2c(=O)c1O`, the concentration for half-maximal inhibition (IC50) in experiment [1] was 130 nM. The values for the EC50 in experiment [2] and in experiment [3] were 70 nM and 7 nM, respectively.

For the compound `Cn1ccc2nc(C(=O)NCc3ccc(F)cc3)c(O)c(=O)n21`, the IC50 in experiment [1] was > 30000 nM.

In experiment [1], `O=C(NCc1ccc(F)cc1)c1nc2c(N3CCOCC3)cc(N3CCOCC3)cn2c(=O)c1O` yielded an IC50 of 755 nM. Also, the concentration for a half-maximal effect (EC50) came to 1550 nM in experiment [2] and 730 nM in experiment [3].

For the compound `Cc1nnc(C(=O)NC(C)(C)c2nc(C(=O)NCc3ccc(F)cc3)c(O)c(=O)n2C)o1` [RALTEGRAVIR POTASSIUM], the results for the EC50 in experiment [2] and in experiment [3] were 7.1 nM and 9.4 nM, respectively.

Turning to `CN1CCN(c2cc(N3CCN(C)S3(=O)=O)c3nc(C(=O)NCc4ccc(F)cc4)c(O)c(=O)n3c2)CC1`, the EC50 in experiment [2] worked out at 4 nM; in experiment [3], 3 nM.

In experiment [1], `O=C(NCc1ccc(F)cc1)c1nc2sccn2c(=O)c1O` registered an IC50 of 33200 nM. That is a double-digit micromolar value.

Turning to `O=C(NCc1ccc(F)cc1)c1nc2ccc(Br)cn2c(=O)c1O`, half-maximal inhibition in experiment [1] (IC50) was put at 445 nM.

For `O=C(NCc1cc(Cl)cc(Cl)c1)c1nc2c(N3CCCS3(=O)=O)cc(N3CCOCC3)cn2c(=O)c1O`, half-maximal inhibition in experiment [1] (IC50) required 130 nM. For the same compound, the EC50 in experiment [2] was found to be 43 nM; in experiment [3], 0.2 nM.

Take `O=C(NCc1ccc(F)cc1)c1nc2c3ccccc3on2c(=O)c1O`: in experiment [1], the IC50 was > 10000 nM.

The compound `O=C(NCc1ccc(F)cc1)c1nc2c(OCc3ccc(F)cc3)cc(N3CCOCC3)cn2c(=O)c1O` returned an IC50 in experiment [1] of 275 nM. Moreover, the EC50 in experiment [3] was determined as 80 nM.

`Cn1c2ccccc2c2nc(C(=O)NCc3ccc(F)cc3)c(O)c(=O)n21` gave an IC50 in experiment [1] of 626 nM.

Consider `COc1cccc2c1sc1nc(C(=O)NCc3ccc(F)cc3)c(O)c(=O)n12`, for which, in experiment [1], the IC50 is > 50000 nM.

As a reminder, the IC50 is the midpoint of a concentration-inhibition curve. A low value points to greater potency in that assay. One may read the EC50 as the midpoint of the concentration-response curve.
